Laboratory results from patent publication US6914045B2, “Glycopeptide antibiotics” (Wyeth Holdings Corporation, priority 2001, dated 2005).
In brackets after ≈: the same amount, converted by molar mass.

What was measured:
[1] = test system: Enterococcus sp.; assay: in vitro antibacterial evaluation, MIC by broth dilution; assay type: cell-based; conditions: broth dilution, 18 hours at 35° C.
Procedure, shortened: (§1)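 Broth dilution per NCCLS standard M7-A2 in Muller-Hinton II […], with an inoculum of 5×10^5 CFU/mL and antibiotic spanning 64-0.06 μg/mL. The MIC is the lowest concentration that inhibits growth of the organism.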

[2] = test system: Escherichia coli; assay: as above; assay type: cell-based; conditions: 18 hours at 35° C.
Procedure, shortened: as §1

[3] = test system: Staphylococcus sp.; assay: as above; assay type: cell-based; conditions: broth dilution, 18 hours at 35° C.
Procedure, shortened: as §1

[4] = test system: Streptococcus sp.; assay: as above; assay type: cell-based; conditions: broth dilution, 18 hours at 35° C.
Procedure, shortened: as §1

[5] = clinical pathology (serum clinical chemistry) in mice; assay type: in vivo; conditions: CD-1 mice, 20 mg/kg intravenously daily for 9 days, sera day 10
Procedure: 20-day-old CD-1 mice were divided into a vehicle control group (5 mice) and a treatment group (5 mice). Samples of glycopeptide antibiotics were administered at 20 mg/kg intravenously daily for 9 days.

[6] = anatomic pathology (histopathology of heart and kidney) in mice; assay type: in vivo; conditions: CD-1 mice, 20 mg/kg intravenously daily for 9 days, necropsy day 10, microscopic histopathology
Procedure: Samples of tissues from necropsied mice were formalin-fixed, paraffin-embedded, sectioned, stained with hematoxylin and eosin, and examined microscopically. Histopathologic findings were recorded. These findings were subjectively graded on a scale corresponding to slight, mild, moderate, marked and severe as compared to untreated controls.

## CC(c1ccccc1)C1NC(=O)CNC(=O)C(CO)NC(=O)C(C(O)C2CNC(=N)N2C2OC(CO)C(O)C(O)C2O)NC(=O)C(C(O)C2CNC(=N)N2)NC(=O)C(Cc2ccc(OC3OC(CO)C(OC4OC5COC(Cc6ccccc6)OC5C(O)C4O)C(O)C3O)cc2)NC1=O (stereo not drawn) [Example 102, Cyclo[glycyl-β-methylphenylalanyl-O-[4-O-(4,6-O-phenethylidenehexopyranosyl)-hexopyranosyl]tyrosyl-3-(2-iminoimidazolidin-4-yl)seryl-3-(3-hexopranosyl-2-iminoimidazolidin-4-yl)serylseryl]]
[1]; Enterococcus avium (GC 4558)
  MIC Enterococcus avium (GC 4558): 2 to 4 µg/mL
[1]; Enterococcus faecalis (ATCC 29212)
  MIC Enterococcus faecalis (ATCC 29212): 2 to 4 µg/mL
[1]; Enterococcus faecalis (GC 2242)
  MIC Enterococcus faecalis (GC 2242): 2 to 4 µg/mL
[1]; Enterococcus faecalis (GC 2691)
  MIC Enterococcus faecalis (GC 2691): 2 to 4 µg/mL
[1]; Enterococcus faecalis (GC 3059)
  MIC Enterococcus faecalis (GC 3059): 2 to 4 µg/mL
[1]; Enterococcus faecalis (GC 4552)
  MIC Enterococcus faecalis (GC 4552): 2 to 4 µg/mL
[1]; Enterococcus faecalis (GC 4553)
  MIC Enterococcus faecalis (GC 4553): 2 to 4 µg/mL
[1]; Enterococcus faecalis (GC 4554)
  MIC Enterococcus faecalis (GC 4554): 2 to 4 µg/mL
[1]; Enterococcus faecalis (GC 6189)
  MIC Enterococcus faecalis (GC 6189): 2 to 4 µg/mL
[1]; Enterococcus faecium (GC 2243)
  MIC Enterococcus faecium (GC 2243): 2 to 4 µg/mL
[1]; Enterococcus faecium (GC 4556)
  MIC Enterococcus faecium (GC 4556): 2 to 4 µg/mL
[1]; Enterococcus faecium (GC 4557)
  MIC Enterococcus faecium (GC 4557): 1 to 2 µg/mL
[1]; strain ATCC 29212
  MIC Enterococcus faecalis (ATCC 29212): 2 to 4 µg/mL
[1]; strain GC 2242
  MIC Enterococcus faecalis (GC 2242): 2 to 4 µg/mL
[1]; strain GC 2243
  MIC Enterococcus faecium (GC 2243): 2 to 4 µg/mL
[1]; strain GC 2691
  MIC Enterococcus faecalis (GC 2691): 2 to 4 µg/mL
[1]; strain GC 3059
  MIC Enterococcus faecalis (GC 3059): 2 to 4 µg/mL
[1]; strain GC 4552
  MIC Enterococcus faecalis (GC 4552): 2 to 4 µg/mL
[1]; strain GC 4553
  MIC Enterococcus faecalis (GC 4553): 2 to 4 µg/mL
[1]; strain GC 4554
  MIC Enterococcus faecalis (GC 4554): 2 to 4 µg/mL
[1]; strain GC 4556
  MIC Enterococcus faecium (GC 4556): 2 to 4 µg/mL
[1]; strain GC 4557
  MIC Enterococcus faecium (GC 4557): 1 to 2 µg/mL
[1]; strain GC 4558
  MIC Enterococcus avium (GC 4558): 2 to 4 µg/mL
[1]; strain GC 6189
  MIC Enterococcus faecalis (GC 6189): 2 to 4 µg/mL
[2]; strain ATCC 25922
  MIC Escherichia coli (ATCC 25922): 16 to 64 µg/mL
[2]; strain GC 4559
  MIC Escherichia coli (GC 4559): 16 to 32 µg/mL
[2]; strain GC 4560
  MIC Escherichia coli (GC 4560): 0.5 to 1 µg/mL
[3]
  MIC Coagulase Negative Staphylococcus (GC 4547): 1 µg/mL (≈ 0.716 µM)
  MIC Coagulase Negative Staphylococcus (GC 4548): 0.5 to 1 µg/mL
  MIC Coagulase Negative Staphylococcus (GC 4549): 0.5 to 1 µg/mL
  MIC Coagulase Negative Staphylococcus (GC 4551): 1 to 2 µg/mL
  MIC Coagulase Negative Staphylococcus (GC 6257): 0.5 µg/mL (≈ 0.358 µM)
  MIC Staphylococcus aureus (ATCC 29213): 1 to 2 µg/mL
  MIC Staphylococcus aureus (GC 1131): 2 µg/mL (≈ 1.43 µM)
  MIC Staphylococcus aureus (GC 3051): 1 µg/mL (≈ 0.716 µM)
  MIC Staphylococcus aureus (GC 3053): 1 to 2 µg/mL
  MIC Staphylococcus aureus (GC 4541): 1 to 2 µg/mL
  MIC Staphylococcus aureus (GC 4542): 0.5 to 1 µg/mL
  MIC Staphylococcus aureus (GC 4544): 1 to 2 µg/mL
  MIC Staphylococcus aureus (GC 4545): 0.5 to 1 µg/mL
  MIC Staphylococcus aureus-SMITH (GC 4543): 0.5 to 1 µg/mL
  MIC Staphylococcus haemolyticus (GC 4546): 0.5 to 1 µg/mL
[3]; strain GC 4546
  MIC Staphylococcus haemolyticus (GC 4546): 0.5 to 1 µg/mL
[3]; strain GC 4547
  MIC Coagulase Negative Staphylococcus (GC 4547): 1 µg/mL (≈ 0.716 µM)
[3]; strain GC 4548
  MIC Coagulase Negative Staphylococcus (GC 4548): 0.5 to 1 µg/mL
[3]; strain GC 4549
  MIC Coagulase Negative Staphylococcus (GC 4549): 0.5 to 1 µg/mL
[3]; strain GC 4551
  MIC Coagulase Negative Staphylococcus (GC 4551): 1 to 2 µg/mL
[3]; strain GC 6257
  MIC Coagulase Negative Staphylococcus (GC 6257): 0.5 µg/mL (≈ 0.358 µM)
[3]; strain SMITH GC 4543
  MIC Staphylococcus aureus-SMITH (GC 4543): 0.5 to 1 µg/mL
[3]; strain ATCC 29213
  MIC Staphylococcus aureus (ATCC 29213): 1 to 2 µg/mL
[3]; strain GC 1131
  MIC Staphylococcus aureus (GC 1131): 2 µg/mL (≈ 1.43 µM)
[3]; strain GC 3051
  MIC Staphylococcus aureus (GC 3051): 1 µg/mL (≈ 0.716 µM)
[3]; strain GC 3053
  MIC Staphylococcus aureus (GC 3053): 1 to 2 µg/mL
[3]; strain GC 4541
  MIC Staphylococcus aureus (GC 4541): 1 to 2 µg/mL
[3]; strain GC 4542
  MIC Staphylococcus aureus (GC 4542): 0.5 to 1 µg/mL
[3]; strain GC 4544
  MIC Staphylococcus aureus (GC 4544): 1 to 2 µg/mL
[3]; strain GC 4545
  MIC Staphylococcus aureus (GC 4545): 0.5 to 1 µg/mL
[4]; Streptococcus agalactiae (GC 4564)
  MIC Streptococcus agalactiae (GC 4564): <0.12 to 0.25 µg/mL
[4]; Streptococcus pneumoniae (ATCC 6301)
  MIC Streptococcus pneumoniae (ATCC 6301): <0.06 µg/mL
[4]; Streptococcus pneumoniae (GC 1894)
  MIC Streptococcus pneumoniae (GC 1894): <0.06 µg/mL
[4]; Streptococcus pyogenes (GC 4563)
  MIC Streptococcus pyogenes (GC 4563): <0.12 to 0.25 µg/mL
[4]; strain ATCC 6301
  MIC Streptococcus pneumoniae (ATCC 6301): <0.06 µg/mL
[4]; strain GC 1894
  MIC Streptococcus pneumoniae (GC 1894): <0.06 µg/mL
[4]; strain GC 4563
  MIC Streptococcus pyogenes (GC 4563): <0.12 to 0.25 µg/mL
[4]; strain GC 4564
  MIC Streptococcus agalactiae (GC 4564): <0.12 to 0.25 µg/mL
[5]
  Clinical Chemistry (Day 10) % of Control, ALT: +672%
  Clinical Chemistry (Day 10) % of Control, AST: +340%
  Clinical Chemistry (Day 10) % of Control, BUN: +249%
  Clinical Chemistry (Day 10) % of Control, Creatinine: +100%
[6]
  Anatomical Pathology (Day 10), Heart: +++
  Anatomical Pathology (Day 10), Kidney: +++
